{"source": "patent US20230210834A1", "about": "“RNA METHYLTRANSFERASE INHIBITOR, SCREENING METHOD THEREFOR, ANTI-CANCER AGENT EFFICACY ASSESSMENT MARKER, AND KIT FOR EFFECTIVELY PREDICTING FTSJ1 INHIBITOR” (National University Corporation Okayama University, priority 2019, published 2023)", "key": {"[1]": {"test_system": "polyglutamine luciferase reporter", "assay": "Screening: polyglutamine luciferase reporter assay in NUGC3 cells (luminescence % of DMSO)", "format": "cell-based, human", "details": "NUGC3 cells, luminescence relative to DMSO; for Polyglutamine: concentration not given", "experimental": "(§1) Human gastric cancer cell line NUGC3 was cultured in a DMEM medium (high glucose with L-glutamine and phenol red, produced by FUJIFILM Wako Pure Chemical Corporation) containing 10% fetal bovine serum (produced by Thermo Fisher Scientific Inc.) and penicillin-streptomycin (produced by FUJIFILM Wako Pure Chemical Corporation) (this medium is simply referred to below as “DMEM+10% FBS+1×P/S”). Then, the NUGC3 cells were seeded in a 60-mm culture dish (produced by BioLite) so that the cells were 80% confluent after 24 hours. Subsequently, 5 μg of a reporter plasmid and 15 μL of a lipofection reagent (transIT-LT1, produced by Mirus Bio LLC) were mixed in 500 μL of Opti-MEM medium (produced by Thermo Fisher Scientific, Inc.) to form a complex, which was added to the medium in which the NUGC3 cells were cultured in the 60-mm culture dish. For use as the reporter plasmid, 5 μg of a polyglutamine luciferase reporter was introduced (in the polyglutamine luciferase reporter, a Renilla luciferase expressed in the IRES was located as an internal standard downstream of the sequence of a firefly luciferase sequence to which polyglutamine was added). Alternatively, a YAP/TAZ activity reporter was used by simultaneously introducing 3 μg of 8×GTIIC plasmid and 2 μg of a Renilla luciferase reporter as an internal standard. After another 24 hours, the cells were exfoliated with a 0.05 w/v % trypsin-0.53 mmol/l EDTA-4Na solution (produced by FUJIFILM Wako Pure Chemical Corporation), and then seeded in a 96-well plate (produced by BioLite) so that the cells were 80% confluent after 24 hours. Twenty-four hours after seeding in the 96-well plate, the medium in each well was replaced with 100 μL of a medium (DMEM+10% FBS+an antibiotic) containing 10 μM or 5 μM of a compound for evaluation. After another 24 hours, the medium containing the compound was removed, and the 96-well plate was transferred on ice. Each well was washed with 100 μL of phosphate buffer (PBS, produced by FUJIFILM Wako Pure Chemical Corporation). Thereafter, 20 μL of Passive Lysis Buffer (1×) contained in a Dual-Luciferase Reporter Assay System (produced by Promega Corporation) was added. The plate was then gently shaken for 15 minutes at room temperature to lyse the cells. After confirming that the cells were lysed, 10 μL of the lysate was transferred from each well to each corresponding well of a white 96-well plate (produced by Greiner Bio-one). To each well of the white 96-well plate was added 100 μL of a mixture of a Luciferase Assay Buffer II and Luciferase Assay Substrate contained in the Dual-Luciferase Reporter Assay System (produced by Promega Corporation), whereby the luminescence of the firefly luciferase was induced, and the luminescence intensity was detected with a microluminometer (produced by Berthold Japan K.K.). Subsequently, 100 μL of a mixture of Stop & Glo Buffer and Stop & Glo Substrate contained in the Dual-Luciferase Reporter Assay System (produced by Promega Corporation) was added, whereby the luminescence of firefly luciferase was quenched while the luminescence of Renilla luciferase was induced, and the luminescence intensity was detected with a microluminometer (produced by Berthold Japan K.K.) in a manner similar to the above. The ratio of the luminescence intensity of the firefly luciferase and the luminescence intensity of the Renilla luciferase was calculated, and the luminescence intensity (%) of the wells containing each compound was calculated with the luminescence intensity of the well containing DMSO (dimethyl sulfoxide, used as a solvent for the compound liquids) taken as 100%. […] Unless otherwise specified, the measured values in the table represent the results obtained by evaluation with the addition of 10 μM of each compound for evaluation."}, "YAP/TAZ": {"test_system": "YAP/TAZ", "assay": "Screening: YAP/TAZ activity reporter (8xGTIIC plasmid) assay in NUGC3 cells (luminescence % of DMSO)", "format": "cell-based, human", "details": "NUGC3 cells, luminescence relative to DMSO; for 8×GTIIC: concentration not given", "experimental": "as §1"}, "[2]": {"details": "polyglutamine luciferase reporter"}, "[3]": {"details": "YAP/TAZ activity reporter (8×GTIIC)"}}, "data": [{"smiles": "CCc1ccc(CC)c(C2CC(c3ccc(C)cc3)=NC2S(=O)(=O)c2ccccc2C)c1", "note": "(stereo not drawn) [PVZF0067]", "values": [{"measurement": "Polyglutamine", "setting": "[1]", "value": 32.14, "unit": "%"}, {"measurement": "8×GTIIC", "setting": "YAP/TAZ", "value": 34.58, "unit": "%"}]}, {"smiles": "CCc1cccc(C2CC(c3ccccc3)=NC2S(=O)(=O)c2ccc(C)cc2)c1CC", "note": "(stereo not drawn) [PVZF0068]", "values": [{"measurement": "Polyglutamine", "setting": "[1]", "value": 39.33, "unit": "%"}, {"measurement": "8×GTIIC", "setting": "YAP/TAZ", "value": 51.65, "unit": "%"}]}, {"smiles": "CCc1cccc(C2CC(c3ccc(C)cc3)=NC2S(=O)(=O)c2ccc(C)cc2)c1CC", "note": "(stereo not drawn) [PVZF0069]", "values": [{"measurement": "Polyglutamine", "setting": "[1]", "value": 46.34, "unit": "%"}, {"measurement": "8×GTIIC", "setting": "YAP/TAZ", "value": 49.99, "unit": "%"}]}, {"smiles": "Cc1ccc(C2=NC(S(=O)(=O)c3ccc(C)cc3)C(c3ccccc3)C2)cc1", "note": "(stereo not drawn) [PVZF0072]", "values": [{"measurement": "Polyglutamine", "setting": "[1]", "value": 60.73, "unit": "%"}, {"measurement": "8×GTIIC", "setting": "YAP/TAZ", "value": 76.88, "unit": "%"}]}, {"smiles": "Cc1ccc(C2=NC(S(=O)(=O)c3ccccc3)C(c3ccc(C)cc3)C2)cc1", "note": "(stereo not drawn) [PVZF0073]", "values": [{"measurement": "Polyglutamine", "setting": "[1]", "value": 60.62, "unit": "%"}, {"measurement": "8×GTIIC", "setting": "YAP/TAZ", "value": 86.43, "unit": "%"}]}, {"smiles": "Cc1ccc(C2=NC(S(=O)(=O)c3ccccc3)C(c3ccccc3C)C2)cc1", "note": "(stereo not drawn) [PVZF0074]", "values": [{"measurement": "Polyglutamine", "setting": "[1]", "value": 79.16, "unit": "%"}, {"measurement": "8×GTIIC", "setting": "YAP/TAZ", "value": 96.63, "unit": "%"}]}, {"smiles": "CCc1cccc(C2CC(c3ccc(C)cc3)=NC2S(C)(=O)=O)c1CC", "note": "(stereo not drawn) [PVZF0079]", "values": [{"measurement": "Polyglutamine", "setting": "[1]", "value": 53.25, "unit": "%"}, {"measurement": "8×GTIIC", "setting": "YAP/TAZ", "value": 79.74, "unit": "%"}]}, {"smiles": "CCc1ccc(C2=NC(S(=O)(=O)c3ccc(C)cc3)C(c3cccc(CC)c3CC)C2)cc1CC", "note": "(stereo not drawn) [PVZF0081]", "values": [{"measurement": "Polyglutamine", "setting": "[1]", "value": 57.42, "unit": "%"}, {"measurement": "8×GTIIC", "setting": "YAP/TAZ", "value": 56.18, "unit": "%"}]}, {"smiles": "Cc1ccc(C2=NC(S(C)(=O)=O)C(c3ccc(C)cc3)C2)cc1", "note": "(stereo not drawn) [PVZF0082]", "values": [{"measurement": "Polyglutamine", "setting": "[1]", "value": 87.78, "unit": "%"}, {"measurement": "8×GTIIC", "setting": "YAP/TAZ", "value": 172.9, "unit": "%"}]}, {"smiles": "CCc1ccc(C2CC(c3ccc(C)cc3)=NC2S(C)(=O)=O)cc1", "note": "(stereo not drawn) [PVZF0083]", "values": [{"measurement": "Polyglutamine", "setting": "[1]", "value": 57.89, "unit": "%"}, {"measurement": "8×GTIIC", "setting": "YAP/TAZ", "value": 104.5, "unit": "%"}]}, {"smiles": "Cc1ccc(C2=NC(S(C)(=O)=O)C(c3ccc(C(C)C)cc3)C2)cc1", "note": "(stereo not drawn) [PVZF0084]", "values": [{"measurement": "Polyglutamine", "setting": "[1]", "value": 71.08, "unit": "%"}, {"measurement": "8×GTIIC", "setting": "YAP/TAZ", "value": 146.9, "unit": "%"}]}, {"smiles": "Cc1ccc(C2=NC(S(=O)(=O)c3ccccc3)C(c3ccc(C)cc3)C2)cc1", "note": "(stereo not drawn) [PVZF0086]", "values": [{"measurement": "Polyglutamine", "setting": "[1]", "value": 58.32, "unit": "%"}, {"measurement": "8×GTIIC", "setting": "YAP/TAZ", "value": 57.06, "unit": "%"}]}, {"smiles": "Cc1ccc(C2=NC(S(C)(=O)=O)C(c3ccc(C)cc3)C2)cc1", "note": "(stereo not drawn) [PVZF0087]", "values": [{"measurement": "Polyglutamine", "setting": "[1]", "value": 81.35, "unit": "%"}, {"measurement": "8×GTIIC", "setting": "YAP/TAZ", "value": 187.1, "unit": "%"}]}, {"smiles": "CCc1ccc(C2CC(c3ccc(C)cc3)=NC2S(=O)(=O)c2ccccc2)cc1", "note": "(stereo not drawn) [PVZF0089]", "values": [{"measurement": "Polyglutamine", "setting": "[1]", "value": 67.1, "unit": "%"}, {"measurement": "8×GTIIC", "setting": "YAP/TAZ", "value": 70.13, "unit": "%"}]}, {"smiles": "CCc1ccccc1C1CC(c2ccc(C)cc2)=NC1S(=O)(=O)c1ccc(C)cc1", "note": "(stereo not drawn) [PVZF0091]", "values": [{"measurement": "Polyglutamine", "setting": "[1]", "value": 34.27, "unit": "%"}, {"measurement": "8×GTIIC", "setting": "YAP/TAZ", "value": 40.68, "unit": "%"}]}, {"smiles": "CCc1ccc(C2CC(c3ccc(C)cc3)=NC2S(=O)(=O)c2ccc(C)cc2)cc1", "note": "(stereo not drawn) [PVZF0092]", "values": [{"measurement": "Polyglutamine", "setting": "[1]", "value": 48.91, "unit": "%"}, {"measurement": "8×GTIIC", "setting": "YAP/TAZ", "value": 54.44, "unit": "%"}]}, {"smiles": "CC(=O)c1cccc(C2CC(c3ccc(C)cc3)=NC2S(=O)(=O)c2ccccc2)c1", "note": "(stereo not drawn) [PVZF0093]", "values": [{"measurement": "Polyglutamine", "setting": "[1]", "value": 45.45, "unit": "%"}, {"measurement": "8×GTIIC", "setting": "YAP/TAZ", "value": 59.77, "unit": "%"}]}, {"smiles": "Cc1ccc(C2=NC(S(=O)(=O)c3ccc(C)cc3)C(c3ccccc3C)C2)cc1", "note": "(stereo not drawn) [PVZF0094]", "values": [{"measurement": "Polyglutamine", "setting": "[1]", "value": 69.05, "unit": "%"}, {"measurement": "8×GTIIC", "setting": "YAP/TAZ", "value": 97.79, "unit": "%"}]}, {"smiles": "CC(=O)c1cccc(C2CC(c3ccc(C)cc3)=NC2S(=O)(=O)c2ccc(C)cc2)c1", "note": "(stereo not drawn) [PVZF0095]", "values": [{"measurement": "Polyglutamine", "setting": "[1]", "value": 47.01, "unit": "%"}, {"measurement": "8×GTIIC", "setting": "YAP/TAZ", "value": 66.76, "unit": "%"}]}, {"smiles": "Cc1ccc(C2=NC(S(=O)(=O)c3ccccc3)C(c3ccc(C)cc3)C2)cc1", "note": "(stereo not drawn) [PVZF0096]", "values": [{"measurement": "Polyglutamine", "setting": "[1]", "value": 73.68, "unit": "%"}, {"measurement": "8×GTIIC", "setting": "YAP/TAZ", "value": 103.6, "unit": "%"}]}, {"smiles": "Cc1ccccc1C1=CC(C2=CC3CCCCC3C=C2)=CC1", "note": "(stereo not drawn) [PVZF0101]", "values": [{"measurement": "activity at 5 µM", "setting": "[1]; Homo sapiens, NUGC-3, 5 μM", "value": 13, "unit": "%"}, {"measurement": "activity at 10 µM", "setting": "[1]; Homo sapiens, NUGC-3, 10 μM", "value": 10, "unit": "%"}, {"measurement": "activity at 5 µM", "setting": "YAP/TAZ; Homo sapiens, NUGC-3, 5 μM, read-out: 8×GTIIC", "value": 16.1, "unit": "%"}, {"measurement": "activity at 10 µM", "setting": "YAP/TAZ; Homo sapiens, NUGC-3, 10 μM, read-out: 8×GTIIC", "value": 12.5, "unit": "%"}]}, {"smiles": "CC(C)c1cc(C(C)C)c(S(=O)(=O)CC2CCCC2)c(C(C)C)c1", "note": "[PVZF2002]", "values": [{"measurement": "Polyglutamine", "setting": "[1]; [2]", "value": 36.92, "unit": "%"}, {"measurement": "8×GTIIC", "setting": "YAP/TAZ; [3]", "value": 38.2, "unit": "%"}]}, {"smiles": "CCCCCCS(=O)(=O)c1c(C(C)C)cc(C(C)C)cc1C(C)C", "note": "[PVZF2003]", "values": [{"measurement": "Polyglutamine", "setting": "[1]; [2]", "value": 41.74, "unit": "%"}, {"measurement": "8×GTIIC", "setting": "YAP/TAZ; [3]", "value": 75.26, "unit": "%"}]}]}
